Columns and labels:
[1] = system: recombinant NL4-3 virus (nef section replaced with Renilla luciferase gene) in MT-2 cells; assay: HIV cell culture assay (antiviral activity, luciferase readout); format: cell-based; settings: Renilla, NL43, MT-2 cells infected for 4-5 days with recombinant NL4-3 Renilla luciferase virus, serial dilutions of compound
Method: HIV cell culture assay—MT-2 cells, 293T cells and the proviral DNA clone of NL4-3 virus were obtained from the NIH AIDS Research and Reference Reagent Program. MT-2 cells were propagated in RPMI 1640 media supplemented with 10% heat inactivated fetal bovine serum (FBS), 100 μg/ml penicillin G and up to 100 units/mL streptomycin. The 293T cells were propagated in DMEM media supplemented with 10% heat inactivated FBS, 100 μg/mL penicillin G and 100 μg/mL streptomycin. A recombinant NL4-3 proviral clone, in which a section of the nef gene was replaced with the Renilla luciferase gene, was used to make the reference virus used in these studies. The recombinant virus was prepared through transfection of the recombinant NL4-3 proviral clone into 293T cells using Transit-293 Transfection Reagent from Mirus Bio LLC (Madison, Wis.). Supernatent was harvested after 2-3 days and the amount of virus present was titered in MT-2 cells using luciferase enzyme activity as a marker by measuring luciferase enzyme activity. Luciferase was quantitated using the EnduRen Live Cell Substrate from Promega (Madison, Wis.). Antiviral activities of compounds toward the recombinant virus were quantified by measuring luciferase activity in MT-2 cells infected for 4-5 days with the recombinant virus in the presence of serial dilutions of the compound.
The 50% effective concentration (EC50) was calculated by using the exponential form of the median effect equation where (Fa)=1/[1+(ED50/drug conc.)^m] (Johnson VA, Byington RT. Infectivity Assay. In Techniques in HIV Research. ed. Aldovini A, Walker BD. 71-76. New York: Stockton Press. 1990). Curve fitting and analysis were performed with ActivityBase XE Runner software version 9.1.0.4 using model 203 (ID Business Solutions, LTD, Guildford, UK).

[2] = Compound cytotoxicity, XTT-based colorimetric assay; format: cell-based; settings: human, uninfected MT2 cells, day 4, XTT
Method: Compound cytotoxicity and the corresponding CC50 values were determined using the same protocol as described in the antiviral assay except that uninfected cells were used. Cytotoxicity was assessed on day 4 in uninfected MT2 cells by using a XTT (2,3-bis[2-Methoxy-4-nitro-5-sulfophenyl]-2H-tetrazolium-5-carboxyanilide inner salt)-based colorimetric assay (Sigma-Aldrich, St Louis, Mo.).

SMILES: Cc1cc(-c2ccc3c(=O)n(-c4ccc(Cl)c5c(NS(C)(=O)=O)nn(C)c45)c([C@H](Cc4cc(F)cc(F)c4)NC(=O)Cn4nc(C(F)F)c5c4C(F)(F)[C@@H]4C[C@H]54)nc3c2)ccc1Cl (atropisomer, axis not shown; (aR)) [Example 31, N-((S)-1-(3-(4-chloro-1-methyl-3-(methylsulfonamido)-1H-indazol-7-yl)-7-(4-chloro-3-methylphenyl)-4-oxo-3,4-dihydroquinazolin-2-yl)-2-(3,5-difluorophenyl)ethyl)-2-((3bS,4aR)-3-(difluoromethyl)-5,5-difluoro-3b,4,4a,5-tetrahydro-1H-cyclopropa[3,4]cyclopenta[1,2-c]pyrazol-1-yl)acetamide]
- EC50 [1]: 4.7 nM
- CC50 at 4 day [2]: > 1000 nM

SMILES: Cn1nc(NS(C)(=O)=O)c2c(Cl)ccc(-n3c([C@H](Cc4cc(F)cc(F)c4)NC(=O)Cn4nc(C(F)F)c5c4C(F)(F)[C@@H]4C[C@H]54)nc4cc(-c5ccc(C(=O)N6CCCCC6)cc5)ccc4c3=O)c21 (atropisomer, axis not shown; (aR)) [Example 34, N-((S)-1-(3-(4-chloro-1-methyl-3-(methylsulfonamido)-1H-indazol-7-yl)-4-oxo-7-(4-(piperidine-1-carbonyl)phenyl)-3,4-dihydroquinazolin-2-yl)-2-(3,5-difluorophenyl)ethyl)-2-((3bS,4aR)-3-(difluoromethyl)-5,5-difluoro-3b,4,4a,5-tetrahydro-1H-cyclopropa[3,4]cyclopenta[1,2-c]pyrazol-1-yl)acetamide]
- EC50 [1]: 0.46 nM
- CC50 at 4 day [2]: > 1000 nM

SMILES: Cn1nc(NS(C)(=O)=O)c2c(Cl)ccc(-n3c([C@H](Cc4cc(F)cc(F)c4)NC(=O)Cn4nc(C(F)F)c5c4C(F)(F)[C@@H]4C[C@H]54)nc4cc(-c5ccc(F)c(C(=O)O)c5)ccc4c3=O)c21 (atropisomer, axis not shown; (aR)) [Example 38, 5-(3-(4-chloro-1-methyl-3-(methylsulfonamido)-1H-indazol-7-yl)-2-((S)-1-(2-((3bS,4aR)-3-(difluoromethyl)-5,5-difluoro-3b,4,4a,5-tetrahydro-1H-cyclopropa[3,4]cyclopenta[1,2-c]pyrazol-1-yl)acetamido)-2-(3,5-difluorophenyl)ethyl)-4-oxo-3,4-dihydroquinazolin-7-yl)-2-fluorobenzoic acid]
- EC50 [1]: 10 nM
- CC50 at 4 day [2]: > 1000 nM

SMILES: Cn1nc(NS(C)(=O)=O)c2c(Cl)ccc(-n3c([C@H](Cc4cc(F)cc(F)c4)NC(=O)Cn4nc(C(F)F)c5c4C(F)(F)[C@@H]4C[C@H]54)nc4cc(-c5cnccn5)ccc4c3=O)c21 (atropisomer, axis not shown; (aR)) [Example 39, N-((S)-1-(3-(4-chloro-1-methyl-3-(methylsulfonamido)-1H-indazol-7-yl)-4-oxo-7-(pyrazin-2-yl)-3,4-dihydroquinazolin-2-yl)-2-(3,5-difluorophenyl)ethyl)-2-((3bS,4aR)-3-(difluoromethyl)-5,5-difluoro-3b,4,4a,5-tetrahydro-1H-cyclopropa[3,4]cyclopenta[1,2-c]pyrazol-1-yl)acetamide]
- EC50 [1]: 0.052 nM
- CC50 at 4 day [2]: > 1000 nM

SMILES: Cn1nc(NS(C)(=O)=O)c2c(Cl)ccc(-n3c([C@H](Cc4cc(F)cc(F)c4)NC(=O)Cn4nc(C(F)F)c5c4C(F)(F)[C@@H]4C[C@H]54)nc4cc(-c5ncccn5)ccc4c3=O)c21 (atropisomer, axis not shown; (aR)) [Example 40, N-((S)-1-(3-(4-chloro-1-methyl-3-(methylsulfonamido)-1H-indazol-7-yl)-4-oxo-7-(pyrimidin-2-yl)-3,4-dihydroquinazolin-2-yl)-2-(3,5-difluorophenyl)ethyl)-2-((3bS,4aR)-3-(difluoromethyl)-5,5-difluoro-3b,4,4a,5-tetrahydro-1H-cyclopropa[3,4]cyclopenta[1,2-c]pyrazol-1-yl)acetamide]
- EC50 [1]: 0.025 nM
- CC50 at 4 day [2]: > 1000 nM

SMILES: CC(C)c1cccc(-c2ccc3c(=O)n(-c4ccc(Cl)c5c(NS(C)(=O)=O)nn(C)c45)c([C@H](Cc4cc(F)cc(F)c4)NC(=O)Cn4nc(C(F)F)c5c4C(F)(F)[C@@H]4C[C@H]54)nc3c2)c1 (atropisomer, axis not shown; (aR)) [Example 41, N-((S)-1-(3-(4-chloro-1-methyl-3-(methylsulfonamido)-1H-indazol-7-yl)-7-(3-isopropylphenyl)-4-oxo-3,4-dihydroquinazolin-2-yl)-2-(3,5-difluorophenyl)ethyl)-2-((3bS,4aR)-3-(difluoromethyl)-5,5-difluoro-3b,4,4a,5-tetrahydro-1H-cyclopropa[3,4]cyclopenta[1,2-c]pyrazol-1-yl)acetamide]
- EC50 [1]: 4.5 nM
- CC50 at 4 day [2]: > 1000 nM

SMILES: Cn1nc(NS(C)(=O)=O)c2c(Cl)ccc(-n3c([C@H](Cc4cc(F)cc(F)c4)NC(=O)Cn4nc(C(F)F)c5c4C(F)(F)[C@@H]4C[C@H]54)nc4cc(-c5ccccc5Cl)ccc4c3=O)c21 (atropisomer, axis not shown; (aR)) [Example 43, N-((S)-1-(3-(4-chloro-1-methyl-3-(methylsulfonamido)-1H-indazol-7-yl)-7-(2-chlorophenyl)-4-oxo-3,4-dihydroquinazolin-2-yl)-2-(3,5-difluorophenyl)ethyl)-2-((3bS,4aR)-3-(difluoromethyl)-5,5-difluoro-3b,4,4a,5-tetrahydro-1H-cyclopropa[3,4]cyclopenta[1,2-c]pyrazol-1-yl)acetamide]
- EC50 [1]: 0.69 nM
- CC50 at 4 day [2]: > 1000 nM

SMILES: Cn1nc(NS(C)(=O)=O)c2c(Cl)ccc(-n3c([C@H](Cc4cc(F)cc(F)c4)NC(=O)Cn4nc(C(F)F)c5c4C(F)(F)[C@@H]4C[C@H]54)nc4cc(-c5cccc(F)c5CO)ccc4c3=O)c21 (atropisomer, axis not shown; (aR)) [Example 44, N-((S)-1-(3-(4-chloro-1-methyl-3-(methylsulfonamido)-1H-indazol-7-yl)-7-(3-fluoro-2-(hydroxymethyl)phenyl)-4-oxo-3,4-dihydroquinazolin-2-yl)-2-(3,5-difluorophenyl)ethyl)-2-((3bS,4aR)-3-(difluoromethyl)-5,5-difluoro-3b,4,4a,5-tetrahydro-1H-cyclopropa[3,4]cyclopenta[1,2-c]pyrazol-1-yl)acetamide]
- EC50 [1]: 0.12 nM
- CC50 at 4 day [2]: > 1000 nM

SMILES: Cn1nc(NS(C)(=O)=O)c2c(Cl)ccc(-n3c([C@H](Cc4cc(F)cc(F)c4)NC(=O)Cn4nc(C(F)F)c5c4C(F)(F)[C@@H]4C[C@H]54)nc4cc(-c5cccc(C(C)(C)C)c5)ccc4c3=O)c21 (atropisomer, axis not shown; (aR)) [Example 45, N-((S)-1-(7-(3-(tert-butyl)phenyl)-3-(4-chloro-1-methyl-3-(methylsulfonamido)-1H-indazol-7-yl)-4-oxo-3,4-dihydroquinazolin-2-yl)-2-(3,5-difluorophenyl)ethyl)-2-((3bS,4aR)-3-(difluoromethyl)-5,5-difluoro-3b,4,4a,5-tetrahydro-1H-cyclopropa[3,4]cyclopenta[1,2-c]pyrazol-1-yl)acetamide]
- EC50 [1]: 4.5 nM
- CC50 at 4 day [2]: > 1000 nM

SMILES: COc1cccc(-c2ccc3c(=O)n(-c4ccc(Cl)c5c(NS(C)(=O)=O)nn(C)c45)c([C@H](Cc4cc(F)cc(F)c4)NC(=O)Cn4nc(C(F)F)c5c4C(F)(F)[C@@H]4C[C@H]54)nc3c2)n1 (atropisomer, axis not shown; (aR)) [Example 46, N-((S)-1-(3-(4-chloro-1-methyl-3-(methylsulfonamido)-1H-indazol-7-yl)-7-(6-methoxypyridin-2-yl)-4-oxo-3,4-dihydroquinazolin-2-yl)-2-(3,5-difluorophenyl)ethyl)-2-((3bS,4aR)-3-(difluoromethyl)-5,5-difluoro-3b,4,4a,5-tetrahydro-1H-cyclopropa[3,4]cyclopenta[1,2-c]pyrazol-1-yl)acetamide]
- EC50 [1]: 0.56 nM
- CC50 at 4 day [2]: > 1000 nM

SMILES: Cn1nc(NS(C)(=O)=O)c2c(Cl)ccc(-n3c([C@H](Cc4cc(F)cc(F)c4)NC(=O)Cn4nc(C(F)F)c5c4C(F)(F)[C@@H]4C[C@H]54)nc4cc(-c5ccc(Cl)cc5)ccc4c3=O)c21 (atropisomer, axis not shown; (aR)) [Example 51, N-((S)-1-(3-(4-chloro-1-methyl-3-(methylsulfonamido)-1H-indazol-7-yl)-7-(4-chlorophenyl)-4-oxo-3,4-dihydroquinazolin-2-yl)-2-(3,5-difluorophenyl)ethyl)-2-((3bS,4aR)-3-(difluoromethyl)-5,5-difluoro-3b,4,4a,5-tetrahydro-1H-cyclopropa[3,4]cyclopenta[1,2-c]pyrazol-1-yl)acetamide]
- EC50 [1]: 3.3 nM
- CC50 at 4 day [2]: > 1000 nM
